Measurements taken from US10961187B2, “Substituted N-acetyl-L-cysteine derivatives and related compounds” (Promentis Pharmaceuticals, Inc., priority 2013, dated 2021).

Assays:
System xc− [1] = biological target: T1, System xc− (Homo sapiens, UniProt Q9UPY5); assay: 3H-glutamate release from human glial cells from brain astrocytoma (1321N1); format: cell-based; conditions: 1321N1 cells
T1 construct: in vitro culture system of human glial cells from brain astrocytoma (1321N1); endogenous in cells; host or cells: 1321N1 human astrocytoma cells
T1 sequence (Q9UPY5 1-501): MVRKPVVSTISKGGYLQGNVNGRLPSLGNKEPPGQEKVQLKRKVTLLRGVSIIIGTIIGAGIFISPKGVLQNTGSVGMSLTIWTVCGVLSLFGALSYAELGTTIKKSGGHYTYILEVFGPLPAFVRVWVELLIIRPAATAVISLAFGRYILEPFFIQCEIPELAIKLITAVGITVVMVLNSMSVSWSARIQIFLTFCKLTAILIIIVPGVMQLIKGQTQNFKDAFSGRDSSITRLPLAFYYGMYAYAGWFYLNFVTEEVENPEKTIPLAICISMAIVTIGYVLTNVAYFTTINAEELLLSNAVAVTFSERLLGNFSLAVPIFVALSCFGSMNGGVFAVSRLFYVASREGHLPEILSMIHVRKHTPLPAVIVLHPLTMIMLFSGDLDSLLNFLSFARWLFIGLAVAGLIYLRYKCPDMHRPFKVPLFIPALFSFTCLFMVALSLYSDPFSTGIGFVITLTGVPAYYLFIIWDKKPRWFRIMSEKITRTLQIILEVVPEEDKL
T1 sequence (P08195 1-529 partner): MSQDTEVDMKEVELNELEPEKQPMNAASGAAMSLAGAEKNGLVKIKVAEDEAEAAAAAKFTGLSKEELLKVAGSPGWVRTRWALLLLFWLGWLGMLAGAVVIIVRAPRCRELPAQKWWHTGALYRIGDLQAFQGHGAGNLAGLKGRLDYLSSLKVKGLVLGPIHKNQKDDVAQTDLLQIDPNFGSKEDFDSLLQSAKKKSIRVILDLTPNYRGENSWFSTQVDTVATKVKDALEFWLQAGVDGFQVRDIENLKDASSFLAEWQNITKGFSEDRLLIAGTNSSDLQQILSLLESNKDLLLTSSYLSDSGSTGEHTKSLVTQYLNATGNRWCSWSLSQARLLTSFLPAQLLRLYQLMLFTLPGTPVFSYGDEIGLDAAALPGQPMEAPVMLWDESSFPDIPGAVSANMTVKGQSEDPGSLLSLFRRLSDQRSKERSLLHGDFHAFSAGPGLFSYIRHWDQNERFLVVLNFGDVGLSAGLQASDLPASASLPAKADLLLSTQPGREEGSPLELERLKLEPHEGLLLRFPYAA
Description: This assay also uses the cell culture system of human glial cells from brain astrocytoma (1321N1) described above. Initially, cells are washed with HBBSS, and ^3H-glutamate is added (PerkinElmer: 1 mCi/mL stock solution is diluted (30 μL+500 HBBSS) and 10 μL of diluted radiolabel is added to each well). Following a 1 hour incubation to load the cells with the labeled glutamate, the cells are washed again with HBBSS, and the drug is added. At 30, 90, and 180 minutes, 50 μL of extracellular media is sampled from each well and is measured using a Beckman LS 6500 scintillation counter.

System xc− [2] = biological target: T1, System xc−; assay: 14C-cystine uptake in human glial cells from brain astrocytoma (1321N1); format: cell-based; conditions: 1321N1 cells
Description: The goal of these experiments was to determine ^14C-cystine uptake.
The screening of compounds was performed using an in vitro culture system of human glial cells from brain astrocytoma (1321N1). Cells were plated on 24 well plates coated with poly-D-lysine and laminin and grown in a balanced salt solution supplemented with 5% heat inactivated horse serum, 5% fetal bovine serum, 2 mM glutamine and glucose (total 21 mM). Cultures were maintained in humidified 5% CO2 incubators at 37° C. for 3-4 days before experiments were performed, at this time the cultures has formed a single confluent layer. For experiments, cultures were washed 3 times into a Na-free HEPES and HCO3^− buffered balanced salt solution. After 1 hour, the test compounds are added. Following a three hour incubation, ^14C-cystine (0.025 mCi/mL) was then added for 20 minutes. Following the ^14C-cystine exposure, cultures were washed 3 times with ice cold HEPES buffered saline solution and dissolved in 250 μl sodium dodecyl sulfate (0.1%). An aliquot (200 μl) was removed and added to scintillation fluid for counting. Values were normalized to ^14C-cystine uptake in untreated controls on the same experimental plate.

[3] = tested on: mixed cortical cell cultures containing glial and neuronal cells; assay: In vitro thiol experiment: intracellular cysteine levels; format: cell-based, mice; conditions: 30 minutes; for intracellular cysteine concentration: raw concentration in collected samples
Description: To further resolve by what process the inhibition of ^14C-cystine uptake is occurring intracellular cysteine levels were determined.
Mixed cortical cell cultures containing glial and neuronal cells were prepared from fetal (15-16 day gestation) mice as previously described. (Lobner D, “Comparison of the LDH and MTT assays for quantifying cell death: validity for neuronal apoptosis?,” J. Neurosci. Methods, 96(2): 147-152 (Mar. 15, 2000)). Dissociated cortical cells were plated on 24-well plates coated with poly-D-lysine and laminin in Eagles' Minimal Essential Medium (MEM, Earle's salts, supplied glutamine-free) supplemented with 5% heat-inactivated horse serum, 5% fetal bovine serum, 2 mM glutamine and glucose (total 21 mM). Cultures were maintained in humidified 5% CO2 incubators at 37° C. Mice were handled in accordance with a protocol approved by our institutional animal care committee and in compliance with the Public Health service Policy on Humane Care and Use of Laboratory Animals.
Mixed cortical cell cultures, 14 days in vitro (this allows for a confluent layer of astrocytes to form and the neurons to generate a complex network of axons and dendrites), were washed into bicarbonate buffered salt solution. After 1 hour, 3, 10, 30, 100 μM of Pro-4047 or Pro-4051 was added and the cells were incubated for 30 or 90 minutes, after which the cells were thoroughly washed and the collected in 250 μL of aqueous mobile phase (50 mM citric acid, 10 mM octanesulfonic acid, pH 2.8) was added, after 10 minutes at 37° C. the cells were scraped from the plates and transferred to 1.5 mL tubes for analysis.
Samples were then sonicated with a Fisher Scientific 60 Sonic Dismembrator. One fraction of this homogenate was analyzed with the Pierce BCA (bicinchoninic acid) method to determine protein concentration. The other fraction was filtered using 3 K molecular weight cutoff, polyethersulfone centrifugal protein filters, and analyzed for thiol content using HPLC (ALF-115 column, 150×1.0 mm, 3 μm C18 [Pro-2023 analysis utilized a Phenomenex Kinetex 2.6 μM, C18, 100 A, 150×2.1 mm and Pro-4047 analysis utilized a Phenomenex Kinetex X-B, C18, 100 A, 2.6 μm, 150×4.4 mm]; mobile phase: 50 mM citric acid, 10 mM octanesulfonic acid, 2% acetonitrile, pH 2.8, 50 μL/min flow rate [Pro-2023 analysis utilized a 100 μL/min flow rate and Pro-4047 analysis utilized 1% acetonitrile and 0.4 mL/min flow rate] with electrochemical detection (Decade II, Au working electrode, Flex Cell HyREF, 0.55V, Antec Leyden, Netherlands [Pro-4047 analysis utilized a Magic Diamond working electrode and 1.8V]).
When the intracellular thiol assay was initiated, all data was normalized to protein concentration. […] The data presented herein represents the raw cysteine concentrations in the collected samples. […] Pro-4006 at 10 μM increases intracellular cysteine concentration to 0.07 μM at 30 minutes (approximately 3.5 times that of the control; FIG. 11). […] Pro-4047 at 300 μM increases intracellular cysteine concentration to 0.74 μM at 90 minutes (approximately 4.9 times that of the control; FIG. 13). […] Thus, based on the 3 in vitro experiments it is apparent that Pro-2023, Pro-4006, Pro-4011, Pro-4047, Pro-4051 and Pro-4051a behave as effective cysteine prodrugs.

Rats = assay: Elevated-plus maze; format: in vivo; conditions: 10 mg/kg PO
Description: Rats were tested in a standard elevated plus maze; testing occurred in a dimly illuminated room using only two lights mounted over the maze. Animals were allowed to habituate to the room for at least one hour prior to treatment. One hour prior to testing, rats received a compound of the present invention (0-30 mg/kg, P.O.). For testing, the rat was placed in the elevated plus maze for five minutes, alternating the starting position between facing an open arm and facing a closed arm. The session was recorded and an observer blind to treatment recorded the number of explorations, entries and time spent in the open arm. Explorations were defined as the rat placing two feet into an open arm without fully entering said arm. Entries were defined as the rat placing all four feet in an open arm. Time of entry in the open arm was recorded from the time the rat placed four feet in the open arm until two of the rats' feet entered the open square.

| increase in 3H-glutamate release (System xc− [1]; 30 μM, at 30 minutes) [%] | decrease in 14C-cystine uptake (System xc− [2]; 30 μM (most effective concentration), three hour incubation) | increase in 3H-glutamate release (System xc− [1]; 100 μM, at 3 hours) [%] | increase in 14C-cystine uptake (System xc− [2]; 100 μM (most effective concentration), three hour incubation) | increase in 3H-glutamate release (System xc− [1]; 1000 μM, at 30 minutes) | inhibition of 14C-cystine uptake (in words) (System xc− [2]; 3 hour incubation) | Structure (SMILES) | intracellular cysteine, times that of the control ([3]; 10 μM compound) | intracellular cysteine concentration ([3]; 10 μM compound) [µM] | increase of time on the open arms over control (Rats) | time spent on the open arms (Rats; one hour prior to testing, five minute session) | intracellular cysteine, times that of the control ([3]; 100 μM compound) | intracellular cysteine concentration ([3]; 100 μM compound) [µM] |
| --- | --- | --- | --- | --- | --- | --- | --- | --- | --- | --- | --- | --- |
| 35 | approximately 45% | – | – | – | – | CC(=O)N[C@@H](CSC(C)(C)c1ccccc1)C(N)=O [Pro-4006, (2R)-2-Acetamido-3-[(2-phenylpropan-2-yl)sulfanyl]propanamide] | approximately 3.5 times | 0.07 | – | – | – | – |
| – | – | 75 | approximately 75% | – | – | O=C(SC[C@H]1C(=O)NCC(=O)N1Cc1ccccc1)c1ccccc1 [Pro-4011, (6R)-6-[(benzoylsulfanyl)methyl]-1-benzylpiperazine-2,5-dione] | approximately 1.16 times | 0.138 | – | – | – | – |
| – | – | – | – | approximately 180% | did not produce a substantial inhibition | CC(=O)N[C@@H](CSC(=O)c1ccc(C)cc1)C(N)=O [Pro-4051a, (2R)-2-acetamido-3-(4-methylbenzoylsulfanyl)propanamide] | – | – | not a significant increase over control | around 22 seconds | approximately 3 times | 0.21 |
